{"source": "patent US7265145B2", "about": "“Substituted piperidines and pyrrolidines as calcium sensing receptor modulators and method” (Bristol-Myers Squibb Company, priority 2003, dated 2007)", "origin": "cited, not measured here", "key": {"[1]": {"settings": "intravenous bolus injection"}, "[2]": {"settings": "OVX rats; oral administration; in the presence of an anti-resorptive agent"}, "[3]": {"settings": "postmenopausal women; placebo-controlled trial"}}}
{"compound": "CC(C)(Cc1ccc2ccccc2c1)NC[C@@H](O)COc1cccc(Cl)c1C#N", "note": "[NPS-2143]", "values": [{"measurement": "serum PTH", "setting": "[1]", "value": "transient increase in serum PTH"}, {"measurement": "bone mass", "setting": "[2]", "value": "increase in bone mass"}]}
{"compound": "PTH peptide fragment (1-34): PTH peptide fragment (1-34) of parathyroid hormone, stimulator of bone formation (SVSEIQLMHNLGKHLNSMERVEWLRKKLQDVHNF; Parathyroid hormone; UniProt P01270 32-65, looked up, fragment)", "values": [{"measurement": "reduce the risk of non-traumatic, non-spine fractures", "setting": "[3]", "value": 54, "unit": "%"}, {"measurement": "reduce the risk of spine fractures", "setting": "[3]", "value": 65, "unit": "%"}]}
